Our source for the Ki values is ChEMBL document CHEMBL1124723, “Selective inhibition of gamma-aminobutyric acid aminotransferase by (3R,4R),(3S,4S)- and (3R,4S),(3S,4R)-4-amino-5-fluoro-3-phenylpentanoic acids” (J Med Chem, 1990).

Experiment [1] addresses 4-aminobutyrate aminotransferase, mitochondrial (Sus scrofa, UniProt P80147). The experiment can be described thus: Binding affinity against Gamma-amino-N-butyrate transaminase in pig brain. Format: tissue-based.
The nature of experiment [2]: Binding affinity against L-glutamate decarboxylase in pig brain. Format: tissue-based, Sus scrofa.

4-aminobutyrate aminotransferase, mitochondrial, sequence (P80147 whole entry): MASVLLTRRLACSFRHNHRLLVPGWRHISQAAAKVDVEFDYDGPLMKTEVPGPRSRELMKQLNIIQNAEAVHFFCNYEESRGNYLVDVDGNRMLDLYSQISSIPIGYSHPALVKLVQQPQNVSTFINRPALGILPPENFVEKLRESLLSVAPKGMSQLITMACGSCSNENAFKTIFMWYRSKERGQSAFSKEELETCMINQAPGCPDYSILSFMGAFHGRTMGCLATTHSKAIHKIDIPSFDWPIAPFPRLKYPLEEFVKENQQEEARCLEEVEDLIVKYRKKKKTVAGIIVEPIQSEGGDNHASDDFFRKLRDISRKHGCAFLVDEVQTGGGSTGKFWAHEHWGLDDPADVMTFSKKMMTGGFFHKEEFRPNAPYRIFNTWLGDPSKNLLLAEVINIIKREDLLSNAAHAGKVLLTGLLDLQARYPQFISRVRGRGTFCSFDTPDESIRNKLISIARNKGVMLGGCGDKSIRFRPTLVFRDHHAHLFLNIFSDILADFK

Consider `N[C@@H](CF)[C@@H](CC(=O)O)c1ccccc1`, for which, in experiment [1], affinity was put at a Ki of 8000 µM. Still for that read-out and setting: under `N[C@H](CF)[C@@H](CC(=O)O)c1ccccc1` stands 1000 µM.

In the case of `NC(CF)CCC(=O)O` (stereo not drawn), affinity in experiment [2] was put at a Ki of 71 µM.
